Data reported in patent US20030099674A1 (priority 2001, published 2003).
Where two headings read alike, the source gives them in different places.

Key:
[1] = no lecithin, 24 hours at 25° C.
Protocol: The mixtures were agitated for 24 hours at 25° C., and were then filtered through a 0.2 micron filter.

[2] = Paclitaxel emulsion stability study #2: effect of pH, dry vs liquid emulsions at 40° C.; assay type: physicochemical; conditions: pH 4.0 to 8.9, stored at 40° C., HPLC
Protocol: These tests were conducted to select optimal pH's for a dry paclitaxel emulsion.
The fine emulsion was divided into 5 portions. The pH of each portion was adjusted to pH 4.0, 5.6, 6.6, 7.8 or 8.9 using 0.2 N HCl or 0.2 N NaOH solution. Average droplet size of each pH adjusted emulsion was determined using LLS.
The stability evaluation included both dry and liquid emulsions (pre-lyophilization) at each pH. These emulsions were stored sealed in glass vials at 40° C.

[3] = Stability of paclitaxel in solutions containing oil and soy lecithin (HPLC purity); assay type: physicochemical
Protocol: The ethanol solution was mixed with the selected oil. […] The resulting oil solutions were sealed in glass vials and stored at 40° C. or at 60° C.

[4] = in the dry emulsions of MCT or sesame oil at a storage temperature of 25° C. or below
Protocol: At each time point including the time 0, a vial was removed from each stability temperature chamber and reconstituted with 0.2 ml deionized water to reform the emulsion.
Along with the dry emulsion samples, the liquid emulsion samples (pre-lyophilization) were also included in this study. The liquid emulsions were stored at −20° C.

With CC(=O)O[C@H]1C(=O)[C@@]2(C)[C@H]([C@H](OC(=O)c3ccccc3)[C@]3(O)C[C@H](OC(=O)[C@H](O)[C@@H](NC(=O)c4ccccc4)c4ccccc4)C(C)=C1C3(C)C)[C@]1(OC(C)=O)CO[C@@H]1C[C@@H]2O [paclitaxel] the “Solubility at 25° C.” value ([1]; MCT oil (Miglyol 812N)) was 40 mg/g of oil, the “Solubility at 25° C.” value ([1]; Sesame oil) was 5 mg/g of oil and the “Stability of paclitaxel in dry versus liquid emulsions” value [2] was “more stable than in the liquid emulsions”. For the same compound, the “Purity (% paclitaxel peak area over total peak area) Day 0” value ([3]; Corn oil with soy lecithin) was 98.7 % paclitaxel peak area over total peak area, the “Purity (% paclitaxel peak area over total peak area) Day 0” value ([3]; Cottonseed oil with soy lecithin) was 98.8 % paclitaxel peak area over total peak area and the “Purity (% paclitaxel peak area over total peak area) Day 0” value ([3]; Ethyl oleate with soy lecithin) was 97.0 % paclitaxel peak area over total peak area. The “Purity (% paclitaxel peak area over total peak area) Day 0” value ([3]; Miglyol 812N with soy lecithin) was 99.3 % paclitaxel peak area over total peak area, the “Purity (% paclitaxel peak area over total peak area) Day 0” value ([3]; Safflower oil with soy lecithin) was 98.0 % paclitaxel peak area over total peak area and the “Purity (% paclitaxel peak area over total peak area) Day 0” value ([3]; Sesame oil + oleic acid, with soy lecithin) was 98.5 % paclitaxel peak area over total peak area. The “Purity (% paclitaxel peak area over total peak area) Day 0” value ([3]; Sesame oil + vit E, with soy lecithin) was 99.0 % paclitaxel peak area over total peak area, the “Purity (% paclitaxel peak area over total peak area) Day 0” value ([3]; Sesame oil + water, with soy lecithin) was 99.1 % paclitaxel peak area over total peak area and the “Purity (% paclitaxel peak area over total peak area) Day 0” value ([3]; Sesame oil with soy lecithin) was 99.0 % paclitaxel peak area over total peak area. For the same compound, the “Purity (% paclitaxel peak area over total peak area) Day 0” value ([3]; Sesame oil without soy lecithin) was 99.2 % paclitaxel peak area over total peak area, the “Purity (% paclitaxel peak area over total peak area) Day 0” value ([3]; Soybean oil with soy lecithin) was 99.4 % paclitaxel peak area over total peak area and the “Purity (% paclitaxel peak area over total peak area) Day 0” value ([3]; Vitamin E with soy lecithin) was 96.3 % paclitaxel peak area over total peak area. For the same compound, the “Time paclitaxel is chemically stable” value [4] was “at least 28 days”.
